# Values quoted from earlier work in patent publication US8460861B2, “Method for producing hydrogen-containing fluid able to be used in a living organism” (MIZ Co. Ltd., priority 2009, dated 2013).
# Conditions: 20 C degrees under 1 barometric pressure
smiles,measurement,value
[HH] [molecular hydrogen],saturation concentration,1.6 ppm
